Experimental data published in ChEMBL document CHEMBL1201862, “PubChem BioAssay data set” (2004).
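Each compound was tested at five concentrations against cells in 96-well plates for 48 hours. GI50: concentration for 50% inhibition of growth.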 Calls of active or inactive are those of the source. No stated cut-off is given here; in the data, active = GI50 up to about 1.1 µM and inactive = higher.

What was measured:
Experiment in all cases: growth of human tumour cells (NCI), 48 h
A549 = tested on: A549
EKVX = tested on: EKVX
M14 = tested on: M14
RXF 393 = tested on: RXF 393
OVCAR-3 = tested on: OVCAR-3
DMS-273 = tested on: DMS-273
UACC-257 = tested on: UACC-257
NCI-H460 = tested on: NCI-H460
TK-10 = tested on: TK-10
COLO 205 = tested on: COLO 205
RPMI-8226 = tested on: RPMI-8226
HOP-62 = tested on: HOP-62
HCT-15 = tested on: HCT-15
MOLT-4 = tested on: MOLT-4
SN12C = tested on: SN12C
Malme-3M = tested on: Malme-3M
KM12 = tested on: KM12
NCI/ADR-RES = tested on: NCI/ADR-RES
PC-3 = tested on: PC-3
DU-145 = tested on: DU-145

Row | Structure (SMILES) | GI50 (A549) | GI50 (EKVX) | GI50 (M14) | GI50 (RXF 393) | GI50 (OVCAR-3) | GI50 (DMS-273) | GI50 (UACC-257) | GI50 (NCI-H460) | GI50 (TK-10) | GI50 (COLO 205) | GI50 (RPMI-8226) | GI50 (HOP-62) | GI50 (HCT-15) [µM] | GI50 (MOLT-4) | GI50 (SN12C) | GI50 (Malme-3M) | GI50 (KM12) | GI50 (NCI/ADR-RES) | GI50 (PC-3) | GI50 (DU-145)
1 | CCOC(=O)c1s/c(=N\Nc2nc3ccccc3cc2C2OCCO2)n(Cc2ccccc2)c1C | > 100 µM (inactive) | > 100 µM (inactive) | > 100 µM (inactive) | > 100 µM (inactive) | > 100 µM (inactive) | > 100 µM (inactive) | > 100 µM (inactive) | > 100 µM (inactive) | > 100 µM (inactive) | > 100 µM (inactive) | > 100 µM (inactive) | > 100 µM (inactive) | > 100 | 40.2 µM (inactive) | > 100 µM (inactive) | > 100 µM (inactive) | > 100 µM (inactive) |  |  | 
2 | Cc1c2ccnc(C(N)=O)c2c(C)c2c1[nH]c1ccccc12 | 5.47 µM (inactive) | 10.6 µM (inactive) | 6.58 µM (inactive) | 4.19 µM (inactive) | 9.08 µM (inactive) | 2.39 µM (inactive) | 10.5 µM (inactive) | 3.81 µM (inactive) | 5.55 µM (inactive) | 5.07 µM (inactive) | 5.82 µM (inactive) | 5.97 µM (inactive) | 4.1 | 2.72 µM (inactive) | 4.13 µM (inactive) | 6.15 µM (inactive) | 6.07 µM (inactive) | 5.65 µM (inactive) |  | 
3 | COC(=O)[C@@H]1CSC(=S)N1C(=O)C[C@H]1CC=CC[C@H]1CC(=O)Sc1ccccc1 | 17.7 µM (inactive) | 17.4 µM (inactive) | 16.7 µM (inactive) | 14.2 µM (inactive) | 19.2 µM (inactive) | 21.7 µM (inactive) | 18.5 µM (inactive) | 17.7 µM (inactive) | > 10 µM (inactive) | 19.5 µM (inactive) | 12.5 µM (inactive) | 20.7 µM (inactive) | 16.2 | 4.29 µM (inactive) | 15.7 µM (inactive) | 21.5 µM (inactive) | 15.1 µM (inactive) |  |  | 
4 | O=C(N/C(=C\c1ccc2c(c1)OCO2)c1nc2ccccc2[nH]1)c1ccccc1 | 35.2 µM (inactive) | 41.2 µM (inactive) | 25.1 µM (inactive) | 24.7 µM (inactive) | 24.7 µM (inactive) | 28.8 µM (inactive) | 19.6 µM (inactive) | 34.8 µM (inactive) | 29.2 µM (inactive) | 25.1 µM (inactive) | 32.2 µM (inactive) | 24.5 µM (inactive) | 35.6 | 20.2 µM (inactive) | 30.2 µM (inactive) | 34.2 µM (inactive) | 32.7 µM (inactive) |  |  | 
5 | N#CCC(=O)N/N=C(/C(=O)Nc1ccccc1)C1C(=O)N(c2ccccc2)N=C1N (centres undefined) | > 100 µM (inactive) | > 100 µM (inactive) | > 100 µM (inactive) | > 100 µM (inactive) | > 100 µM (inactive) | > 100 µM (inactive) | > 100 µM (inactive) | > 100 µM (inactive) | > 100 µM (inactive) | > 100 µM (inactive) | > 100 µM (inactive) | > 100 µM (inactive) | > 100 | > 100 µM (inactive) | > 100 µM (inactive) | > 100 µM (inactive) | > 100 µM (inactive) |  |  | 
6 | C=CCc1cc(-c2cc(CC=C)c(O)c(CN(CCCl)CCCl)c2)cc(CN(CCCl)CCCl)c1O | 13.7 µM (inactive) | 16 µM (inactive) | 15.4 µM (inactive) | 12.8 µM (inactive) | 15.2 µM (inactive) | 7.83 µM (inactive) | 16 µM (inactive) | 3.79 µM (inactive) | 19.3 µM (inactive) | 17.7 µM (inactive) | 12.2 µM (inactive) | 14 µM (inactive) | 15.5 | 2.52 µM (inactive) | 9.68 µM (inactive) | 18.7 µM (inactive) | 18.2 µM (inactive) | 18.9 µM (inactive) | 9.08 µM (inactive) | 15.7 µM (inactive)
7 | CC(C)N(C(=O)C12C3C4C1(I)C1C2C3(I)C41C(=O)N(C(C)C)C(C)C)C(C)C (centres undefined) | > 100 µM (inactive) | > 100 µM (inactive) | > 100 µM (inactive) | > 100 µM (inactive) | > 100 µM (inactive) | > 100 µM (inactive) | > 100 µM (inactive) | > 100 µM (inactive) | > 100 µM (inactive) | > 57.3 µM (inactive) | > 52.2 µM (inactive) | > 100 µM (inactive) | > 43.3 | > 100 µM (inactive) | > 100 µM (inactive) | > 100 µM (inactive) | > 43.2 µM (inactive) |  |  | 
8 | COc1c(OC(C)=O)c(OC(C)=O)cc2c1-c1ccc(OC)c(=O)cc1C(NC(C)=O)CC2 (centres undefined) | 0.209 µM (active) | 8.51 µM (inactive) | < 0.0125 µM (active) | < 0.01 µM (active) | 0.0138 µM (active) | 0.0172 µM (active) |  | 0.0451 µM (active) | 2.7 µM (inactive) | 0.0171 µM (active) | < 0.0142 µM (active) | 0.0635 µM (active) | 0.465 | 0.0155 µM (active) | 0.0348 µM (active) | < 0.01 µM (active) | 0.0154 µM (active) | 1.6 µM (inactive) | 0.0493 µM (active) | 0.0525 µM (active)
9 | CCCCCCCCCCCCCCCC(=O)NC1CCc2cc(O)c(O)c(O)c2-c2ccc(SC)c(=O)cc21 (centres undefined) | 1.49 µM (inactive) | 19 µM (inactive) | 8.02 µM (inactive) | 1.46 µM (inactive) | 5.28 µM (inactive) | 4.16 µM (inactive) | 11.1 µM (inactive) | 5.77 µM (inactive) | 15.8 µM (inactive) | 5.21 µM (inactive) | 1.61 µM (inactive) | 9.59 µM (inactive) | 6.03 | 9.44 µM (inactive) | 12.9 µM (inactive) | 10.4 µM (inactive) | 6.22 µM (inactive) |  |  | 
